ChEMBL document CHEMBL3885861, “Open TG-GATES”

Species on record: Rattus norvegicus
Test: Open TG-GATES - Regimen: Daily Repeat
Type: toxicity, organism-based, Sprague-Dawley
Set-up: regimen Daily Repeat, gender Male, age 6 weeks
Conditions: in vivo, po, 100 mg/kg, […], route gavage, dose level Low; for KIDNEY_L / KIDNEY_R / KIDNEY_TOTAL: tissue Kidney; for LIVER: tissue Liver; for A/G / ALP / ALT / AST / BUN / CRE / Ca / Cl / DBIL / GLC / IP / K / LDH / Na / PL / RALB / TBIL / TC / TG / TP / gamma-GTP: tissue Plasma

For `CN(C)[C@@H]1C(O)=C(C(N)=O)C(=O)[C@@]2(O)C(O)=C3C(=O)c4c(O)cccc4[C@@](C)(O)[C@H]3C[C@@H]12` [TETRACYCLINE], the Lym (tissue Blood, time 28 day) was 90%, the MCH (tissue Blood, time 28 day) was 19 pg and the MCHC (tissue Blood, time 28 day) was 33.4%. For the same compound, the MCV (tissue Blood, time 28 day) was 57.1 fL, the Mono (tissue Blood, time 28 day) was 3.8% and the Neu (tissue Blood, time 28 day) was 5.2%. For the same compound, the PT (tissue Blood, time 28 day) was 12.1 s, the Plat (tissue Blood, time 28 day) was 81 x10_4/uL and the RBC (tissue Blood, time 28 day) was 780 x10_4/ul. For the same compound, the Ret (tissue Blood, time 28 day) was 3.2%, the WBC (tissue Blood, time 28 day) was 163.8 x10_2/uL and the KIDNEY_L (time 7 day) was 1 g. For the same compound, the KIDNEY_R (time 7 day) was 1.1 g, the KIDNEY_TOTAL (time 7 day) was 2.1 g and the KIDNEY_L (time 14 day) was 1.1 g. The KIDNEY_R (time 14 day) was 1.1 g, the KIDNEY_TOTAL (time 14 day) was 2.2 g and the KIDNEY_L (time 28 day) was 1.2 g. The KIDNEY_R (time 28 day) was 1.2 g, the KIDNEY_TOTAL (time 28 day) was 2.4 g and the LIVER (time 7 day) was 11.4 g. The LIVER (time 14 day) was 11.8 g, the LIVER (time 28 day) was 13.6 g and the A/G (time 7 day) was 2.1. For the same compound, the ALP (time 7 day) was 738 IU/L, the ALT (time 7 day) was 37.3 IU/L and the AST (time 7 day) was 71 IU/L. For the same compound, the BUN (time 7 day) was 19.7 mg/dL, the CRE (time 7 day) was 0.6 mg/dL and the Ca (time 7 day) was 11.4 mg/dL. It also gave a Cl (time 7 day) of 105 meq/L, a DBIL (time 7 day) of 0.0033 mg/dL and a GLC (time 7 day) of 181.3 mg/dL. The IP (time 7 day) was 9.9 mg/dL, the K (time 7 day) was 5 meq/L and the LDH (time 7 day) was 105.7 IU/L. For the same compound, the Na (time 7 day) was 140 meq/L, the PL (time 7 day) was 164.7 mg/dL and the RALB (time 7 day) was 3.9 g/dL. For the same compound, the TBIL (time 7 day) was 0.3 mg/dL, the TC (time 7 day) was 86.3 mg/dL and the TG (time 7 day) was 87.7 mg/dL. It also gave a TP (time 7 day) of 5.9 g/dL, a gamma-GTP (time 7 day) of 1.7 IU/L and an A/G (time 14 day) of 2.3. The ALP (time 14 day) was 983.4 IU/L, the ALT (time 14 day) was 35.8 IU/L and the AST (time 14 day) was 66.6 IU/L. The BUN (time 14 day) was 17.2 mg/dL, the CRE (time 14 day) was 0.6 mg/dL and the Ca (time 14 day) was 10.9 mg/dL. For the same compound, the Cl (time 14 day) was 104.4 meq/L, the DBIL (time 14 day) was 0.002 mg/dL and the GLC (time 14 day) was 177 mg/dL. The IP (time 14 day) was 8.3 mg/dL, the K (time 14 day) was 4.6 meq/L and the LDH (time 14 day) was 79.2 IU/L. For the same compound, the Na (time 14 day) was 141 meq/L, the PL (time 14 day) was 149.6 mg/dL and the RALB (time 14 day) was 4.1 g/dL. It also gave a TBIL (time 14 day) of 0.4 mg/dL, a TC (time 14 day) of 71 mg/dL and a TG (time 14 day) of 107.4 mg/dL. It also gave a TP (time 14 day) of 5.9 g/dL, a gamma-GTP (time 14 day) of 2.6 IU/L and an A/G (time 28 day) of 1.7. For the same compound, the ALP (time 28 day) was 765.4 IU/L, the ALT (time 28 day) was 30.2 IU/L and the AST (time 28 day) was 61.8 IU/L. The BUN (time 28 day) was 19.8 mg/dL, the CRE (time 28 day) was 0.6 mg/dL and the Ca (time 28 day) was 10.8 mg/dL. For the same compound, the Cl (time 28 day) was 107.2 meq/L, the DBIL (time 28 day) was 0.032 mg/dL and the GLC (time 28 day) was 173.8 mg/dL. For the same compound, the IP (time 28 day) was 7.5 mg/dL, the K (time 28 day) was 4.2 meq/L and the LDH (time 28 day) was 88.2 IU/L. It also gave a Na (time 28 day) of 141.4 meq/L, a PL (time 28 day) of 154 mg/dL and an RALB (time 28 day) of 3.8 g/dL. It also gave a TBIL (time 28 day) of 0.3 mg/dL, a TC (time 28 day) of 73.8 mg/dL and a TG (time 28 day) of 141.8 mg/dL. For the same compound, the TP (time 28 day) was 6.2 g/dL and the gamma-GTP (time 28 day) was 1.2 IU/L.
